Reference: the supplement of paper PMC10307832

Compound: CC(C)CCN1c2nc(Nc3cc(F)c(O)c(F)c3)ncc2N(C)C(=O)C1C [BI-D1870] + CCNC(=O)c1noc(-c2cc(C(C)C)c(O)cc2O)c1-c1ccc(CN2CCOCC2)cc1 [Luminespib] (partner 0.01 µM)
Test: relative viability (nuclei count vs DMSO), 5 days (fraction); higher = more cells survive
Details: first compound 0.04 µM
Method in brief: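 Relative viability was taken as the ratio of nuclei in treated wells to nuclei in vehicle wells. Lung cancer cell lines in 1536-well plates received compounds by pin tool one day after seeding, either one drug alone or a fixed anchor-drug dose plus five library-drug doses (not always all listed) in √10 steps. Nuclei were counted on 4× images after 5 days of treatment, and values are medians of duplicate plates.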

| Cell Line | relative viability |
| --- | --- |
| NCI-H2405 | 0.711 |
| HOP-62 | 0.989 |
| NCI-H522 | 0.929 |
| LU99A | 0.263 |
| BEN | 0.409 |
| HARA | 0.939 |
| SW 900 | 0.193 |
| NCI-H322M | 0.956 |
| LCLC-97TM1 | 0.892 |
| NCI-H2009 | 1.1 |
| A-427 | 1.06 |
| NCI-H441 | 0.474 |
| NCI-H661 | 0.961 |
| NCI-H1734 | 0.19 |
| NCI-H460 | 0.0324 |
| NCI-H2347 | 0.738 |

| Cell Line | relative viability |
| --- | --- |
| SK-LU-1 | 0.178 |
| NCI-H1395 | 0.623 |
| 201T | 1.1 |
| NCI-H1915 | 0.957 |
| HCC-827 | 0.629 |
| LXF-289 | 0.809 |
| NCI-H23 | 0.237 |
| NCI-H647 | 0.158 |
| CAL-12T | 0.332 |
| NCI-H1651 | 0.902 |
| EPLC-272H | 0.559 |
| NCI-H2228 | 0.142 |
| NCI-H1355 | 0.802 |
| NCI-H3122 | 0.0791 |
| NCI-H1437 | 1.17 |
| NCI-H1755 | 0.577 |

Same assay, conditions: first compound 0.1265 µM

| Cell Line | relative viability |
| --- | --- |
| NCI-H2405 | 0.577 |
| HOP-62 | 0.929 |
| NCI-H522 | 1.05 |
| LU99A | 0.223 |
| BEN | 0.358 |
| HARA | 0.626 |
| SW 900 | 0.192 |
| NCI-H322M | 0.84 |
| LCLC-97TM1 | 0.775 |
| NCI-H2009 | 1.01 |
| A-427 | 0.764 |
| NCI-H441 | 0.267 |
| NCI-H661 | 0.935 |
| NCI-H1734 | 0.175 |
| NCI-H460 | 0.0316 |
| NCI-H2347 | 0.376 |

| Cell Line | relative viability |
| --- | --- |
| SK-LU-1 | 0.17 |
| NCI-H1395 | 0.532 |
| 201T | 1.01 |
| NCI-H1915 | 0.673 |
| HCC-827 | 0.672 |
| LXF-289 | 0.607 |
| NCI-H23 | 0.222 |
| NCI-H647 | 0.0954 |
| CAL-12T | 0.211 |
| NCI-H1651 | 0.743 |
| EPLC-272H | 0.13 |
| NCI-H2228 | 0.131 |
| NCI-H1355 | 0.675 |
| NCI-H3122 | 0.0919 |
| NCI-H1437 | 1.06 |
| NCI-H1755 | 0.542 |

Same assay, conditions: first compound 0.4 µM

| Cell Line | relative viability |
| --- | --- |
| NCI-H2405 | 0.68 |
| HOP-62 | 0.88 |
| NCI-H522 | 0.989 |
| LU99A | 0.276 |
| BEN | 0.441 |
| HARA | 0.671 |
| SW 900 | 0.18 |
| NCI-H322M | 0.884 |
| LCLC-97TM1 | 0.769 |
| NCI-H2009 | 0.93 |
| A-427 | 0.77 |
| NCI-H441 | 0.359 |
| NCI-H661 | 0.988 |
| NCI-H1734 | 0.188 |
| NCI-H460 | 0.0261 |
| NCI-H2347 | 0.367 |

| Cell Line | relative viability |
| --- | --- |
| SK-LU-1 | 0.207 |
| NCI-H1395 | 0.675 |
| 201T | 1.06 |
| NCI-H1915 | 0.732 |
| HCC-827 | 0.681 |
| LXF-289 | 0.674 |
| NCI-H23 | 0.232 |
| NCI-H647 | 0.206 |
| CAL-12T | 0.313 |
| NCI-H1651 | 0.764 |
| EPLC-272H | 0.207 |
| NCI-H2228 | 0.146 |
| NCI-H1355 | 0.649 |
| NCI-H3122 | 0.0942 |
| NCI-H1437 | 1.11 |
| NCI-H1755 | 0.413 |

Same assay, conditions: first compound 1.265 µM

| Cell Line | relative viability |
| --- | --- |
| NCI-H2405 | 0.883 |
| HOP-62 | 0.95 |
| NCI-H522 | 1.24 |
| LU99A | 0.258 |
| BEN | 0.356 |
| HARA | 0.486 |
| SW 900 | 0.175 |
| NCI-H322M | 0.88 |
| LCLC-97TM1 | 0.918 |
| NCI-H2009 | 0.999 |
| A-427 | 1.11 |
| NCI-H441 | 0.394 |
| NCI-H661 | 1.01 |
| NCI-H1734 | 0.187 |
| NCI-H460 | 0.0295 |
| NCI-H2347 | 0.48 |

| Cell Line | relative viability |
| --- | --- |
| SK-LU-1 | 0.224 |
| NCI-H1395 | 0.504 |
| 201T | 1.07 |
| NCI-H1915 | 0.873 |
| HCC-827 | 0.736 |
| LXF-289 | 0.74 |
| NCI-H23 | 0.217 |
| NCI-H647 | 0.31 |
| CAL-12T | 0.419 |
| NCI-H1651 | 1.03 |
| EPLC-272H | 0.245 |
| NCI-H2228 | 0.157 |
| NCI-H1355 | 0.737 |
| NCI-H3122 | 0.11 |
| NCI-H1437 | 1.11 |
| NCI-H1755 | 0.771 |

Same assay, conditions: first compound 4 µM

| Cell Line | relative viability |
| --- | --- |
| NCI-H2405 | 0.54 |
| HOP-62 | 0.866 |
| NCI-H522 | 1.29 |
| LU99A | 0.229 |
| BEN | 0.35 |
| HARA | 0.666 |
| SW 900 | 0.158 |
| NCI-H322M | 0.774 |
| LCLC-97TM1 | 0.846 |
| NCI-H2009 | 0.59 |
| A-427 | 0.879 |
| NCI-H441 | 0.412 |
| NCI-H661 | 0.877 |
| NCI-H1734 | 0.222 |
| NCI-H460 | 0.0315 |
| NCI-H2347 | 0.402 |

| Cell Line | relative viability |
| --- | --- |
| SK-LU-1 | 0.179 |
| NCI-H1395 | 0.521 |
| 201T | 1.12 |
| NCI-H1915 | 0.761 |
| HCC-827 | 0.714 |
| LXF-289 | 0.533 |
| NCI-H23 | 0.24 |
| NCI-H647 | 0.107 |
| CAL-12T | 0.491 |
| NCI-H1651 | 0.843 |
| EPLC-272H | 0.272 |
| NCI-H2228 | 0.127 |
| NCI-H1355 | 0.573 |
| NCI-H3122 | 0.124 |
| NCI-H1437 | 0.855 |
